The numbers were not newly measured in patent US11590127B2, “Gastro-resistant formulation containing posaconazole” (ALFRED E. TIEFENBACHER (GMBH & CO. KG), priority 2015, dated 2023), which cites them from elsewhere.

For `CC[C@@H]([C@H](C)O)n1ncn(-c2ccc(N3CCN(c4ccc(OC[C@@H]5CO[C@@](Cn6cncn6)(c6ccc(F)cc6F)C5)cc4)CC3)cc2)c1=O` [Posaconazole], the aqueous solubility result is “low aqueous solubility”. In addition, the “temperature above which it degrades” value (thermal degradation) was “above 160 °C”.
